The molecules below were run against T1, M-phase inducer phosphatase 2 (Homo sapiens, UniProt P30305) (assay: Cdc25B phosphatase inhibitors, confirmation, selectivity assay, biochemical, catalytic domain, dose response (AID 443)).
T1 sequence (P30305 whole entry): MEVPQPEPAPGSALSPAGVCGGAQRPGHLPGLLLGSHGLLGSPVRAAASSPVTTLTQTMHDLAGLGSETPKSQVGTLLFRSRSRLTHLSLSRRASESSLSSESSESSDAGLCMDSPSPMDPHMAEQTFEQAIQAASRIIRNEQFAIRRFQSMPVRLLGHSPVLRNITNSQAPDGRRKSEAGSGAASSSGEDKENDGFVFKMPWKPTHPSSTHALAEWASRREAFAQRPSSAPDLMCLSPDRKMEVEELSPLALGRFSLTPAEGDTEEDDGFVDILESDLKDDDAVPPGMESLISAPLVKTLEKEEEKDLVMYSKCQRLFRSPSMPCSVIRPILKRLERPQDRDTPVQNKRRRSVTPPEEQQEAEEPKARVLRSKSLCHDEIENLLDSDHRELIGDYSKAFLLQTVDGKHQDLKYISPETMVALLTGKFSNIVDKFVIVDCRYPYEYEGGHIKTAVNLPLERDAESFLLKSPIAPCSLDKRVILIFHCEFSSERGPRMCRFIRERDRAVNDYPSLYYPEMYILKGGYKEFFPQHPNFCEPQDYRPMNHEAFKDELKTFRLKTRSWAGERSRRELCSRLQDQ

SMILES | IC50
CCn1nc(-c2ccccc2)nc2c(=O)n(C)c(=O)nc1-2 [1-Ethyl-6-methyl-3-phenyl-1H-pyrimido[5,4-e][1,2,4]triazine-5,7-dione] | 0.223 µM
CCCCC[C@H](O)C=C[C@H]1C=CC(=O)[C@@H]1C/C=C\CCCC(=O)O [(Z)-7-[(1R,5S)-2-oxidanylidene-5-[(E,3S)-3-oxidanyloct-1-enyl]cyclopent-3-en-1-yl]hept-5-enoic acid] | 43.1 µM
COc1ccc(Cn2c(C)nc3c(c2=O)c2nc4ccccc4nc2n3Cc2ccco2)cc1 [MLS000079944] | 31.5 µM

Next, values leading:

IC50 | SMILES
10.6 µM | Cc1ccc2c(c1C)NC(C(=O)O)C1CC=CC21 (stereo not given)
13.1 µM | CC(C)Cn1c(N)c(C(=O)COC(=O)c2cc(-c3ccco3)nc3ccccc23)c(=O)n(C)c1=O [2-(2-furanyl)-4-quinolinecarboxylic acid [2-[4-amino-1-methyl-3-(2-methylpropyl)-2,6-dioxo-5-pyrimidinyl]-2-oxoethyl] ester]

Source: BindingDB's records for doi:10.7270/Q2FF3QRT (University of Pittsburgh, 2006)
